Measurements published in PubChem BioAssay (NCI).
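Method: 48-hour compound exposure of cells in 96-well plates, five concentrations, linear interpolation of endpoints. GI50 marks 50% less growth. TGI marks complete inhibition of growth.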

Experiments:
Test in all cases: NCI anticancer screen, dose series, 48 h
SK-MEL-5 melanoma = system: SK-MEL-5 melanoma
SF-539 CNS = system: SF-539 CNS
HT29 colon = system: HT29 colon
OVCAR-8 ovarian = system: OVCAR-8 ovarian
SF-295 CNS = system: SF-295 CNS
NCI-H522 lung = system: NCI-H522 lung
SN12C renal = system: SN12C renal
SW-620 colon = system: SW-620 colon
BT-549 breast = system: BT-549 breast
RXF 393 renal = system: RXF 393 renal

## CC(=O)SC(C[N+](=O)[O-])c1ccccc1 (stereo unspecified)
SK-MEL-5 melanoma
  TGI: 8.77 µM
SF-539 CNS
  TGI: 5.26 µM
HT29 colon
  TGI: 4.22 µM
OVCAR-8 ovarian
  TGI: 26 µM
SF-295 CNS
  TGI: 15.9 µM
NCI-H522 lung
  TGI: 31 µM
SN12C renal
  TGI: 27.3 µM
SW-620 colon
  TGI: 5.6 µM
BT-549 breast
  TGI: 5.19 µM
RXF 393 renal
  TGI: 4.01 µM

## CN(CC(=O)O)Cc1c[nH]c2ccccc12
SK-MEL-5 melanoma
  TGI: > 100 µM
SF-539 CNS
  TGI: > 100 µM
HT29 colon
  TGI: > 100 µM
OVCAR-8 ovarian
  TGI: > 100 µM
SF-295 CNS
  TGI: > 100 µM
NCI-H522 lung
  TGI: > 100 µM
SN12C renal
  TGI: > 100 µM
SW-620 colon
  TGI: > 100 µM
BT-549 breast
  TGI: > 100 µM
RXF 393 renal
  TGI: > 100 µM

## O=C(/C=C/c1ccco1)c1cccc(Nc2nc(Nc3ccccc3)nc(Nc3ccccc3)n2)c1
SK-MEL-5 melanoma
  GI50: 22 µM
  TGI: > 100 µM
SF-539 CNS
  GI50: 44.5 µM
  TGI: > 100 µM
HT29 colon
  GI50: 17.2 µM
  TGI: > 100 µM
OVCAR-8 ovarian
  GI50: 10 µM
  TGI: > 83.2 µM
SF-295 CNS
  GI50: 2.94 µM
  TGI: > 25.3 µM
NCI-H522 lung
  GI50: 44.6 µM
  TGI: > 100 µM
SN12C renal
  GI50: 35 µM
  TGI: > 100 µM
SW-620 colon
  GI50: 18.2 µM
  TGI: > 100 µM
BT-549 breast
  GI50: 19 µM
  TGI: > 82.9 µM
RXF 393 renal
  GI50: 1.36 µM
  TGI: 8.15 µM

## Nc1c(S(=O)(=O)O)cc2c(c1Cl)C(=O)c1ccccc1C2=O
SK-MEL-5 melanoma
  GI50: > 100 µM
  TGI: > 100 µM
SF-539 CNS
  GI50: > 100 µM
  TGI: > 100 µM
HT29 colon
  GI50: > 100 µM
  TGI: > 100 µM
OVCAR-8 ovarian
  GI50: > 100 µM
  TGI: > 100 µM
SF-295 CNS
  GI50: > 100 µM
  TGI: > 100 µM
NCI-H522 lung
  GI50: > 100 µM
  TGI: > 100 µM
SN12C renal
  GI50: > 100 µM
  TGI: > 100 µM
SW-620 colon
  GI50: > 100 µM
  TGI: > 100 µM
BT-549 breast
  GI50: > 100 µM
  TGI: > 100 µM
RXF 393 renal
  GI50: > 100 µM
  TGI: > 100 µM

## COc1cc(C2C(Cl)C(=O)N2NC(=O)c2ccccc2O)cc(OC)c1OC (stereo unspecified)
SK-MEL-5 melanoma
  TGI: > 10 µM
SF-539 CNS
  TGI: > 10 µM
HT29 colon
  TGI: 9.06 µM
OVCAR-8 ovarian
  TGI: > 10 µM
SF-295 CNS
  TGI: 8.43 µM
NCI-H522 lung
  TGI: 8.21 µM
SW-620 colon
  TGI: > 10 µM
BT-549 breast
  TGI: > 10 µM
RXF 393 renal
  TGI: > 10 µM

## COc1ccc2c(c1)cn1c3ccc(OC)cc3[nH]c(=O)c21
SK-MEL-5 melanoma
  GI50: < 0.019 µM
  TGI: 0.76 µM
SF-539 CNS
  GI50: < 0.0159 µM
  TGI: < 0.028 µM
HT29 colon
  GI50: < 0.0155 µM
  TGI: 0.281 µM
OVCAR-8 ovarian
  GI50: < 0.0214 µM
  TGI: 1.46 µM
SF-295 CNS
  GI50: < 0.0169 µM
NCI-H522 lung
  GI50: < 0.0134 µM
  TGI: 0.15 µM
SN12C renal
  GI50: < 0.0232 µM
  TGI: 1.65 µM
SW-620 colon
  GI50: < 0.0147 µM
  TGI: 1.36 µM
BT-549 breast
  GI50: 0.0407 µM
  TGI: 1.17 µM
RXF 393 renal
  GI50: 0.0257 µM
  TGI: 1.79 µM

## CN(Cc1cccc(Cl)c1)c1ccc(CO)c(Cl)c1
SK-MEL-5 melanoma
  GI50: 7.47 µM
  TGI: 20.7 µM
SF-539 CNS
  GI50: 18.7 µM
  TGI: 38.7 µM
HT29 colon
  GI50: 9.93 µM
  TGI: 31.2 µM
OVCAR-8 ovarian
  GI50: 15.8 µM
  TGI: 53.8 µM
SF-295 CNS
  GI50: 3.7 µM
  TGI: 32.1 µM
NCI-H522 lung
  GI50: 17.2 µM
  TGI: 41.4 µM
SN12C renal
  GI50: 14.3 µM
  TGI: 37.2 µM
SW-620 colon
  GI50: 5.93 µM
  TGI: > 42.9 µM
BT-549 breast
  GI50: 14.6 µM
  TGI: 34.5 µM
RXF 393 renal
  GI50: 8.55 µM
  TGI: 23.4 µM

## COc1ccc(-n2cc(-c3ccc(F)cc3)[nH]c2=O)cc1OC
SK-MEL-5 melanoma
  GI50: > 100 µM
  TGI: > 100 µM
SF-539 CNS
  GI50: 82.2 µM
  TGI: > 100 µM
HT29 colon
  GI50: > 100 µM
  TGI: > 100 µM
OVCAR-8 ovarian
  GI50: 82.1 µM
  TGI: > 100 µM
SF-295 CNS
  GI50: > 100 µM
  TGI: > 100 µM
NCI-H522 lung
  GI50: > 100 µM
  TGI: > 100 µM
SN12C renal
  GI50: 58 µM
  TGI: > 100 µM
SW-620 colon
  GI50: > 100 µM
  TGI: > 100 µM
BT-549 breast
  GI50: > 100 µM
  TGI: > 100 µM
RXF 393 renal
  GI50: > 100 µM
  TGI: > 100 µM

## Nc1nc(-c2ccccc2Cl)cc(-c2ccc(Cl)cc2Cl)n1
SK-MEL-5 melanoma
  GI50: 4.78 µM
  TGI: 20.8 µM
SF-539 CNS
  GI50: 7.39 µM
  TGI: 67 µM
HT29 colon
  GI50: 4.32 µM
  TGI: 24.3 µM
OVCAR-8 ovarian
  GI50: 6.87 µM
  TGI: > 100 µM
NCI-H522 lung
  GI50: 3.27 µM
  TGI: 23.3 µM
SN12C renal
  GI50: 13.1 µM
  TGI: > 100 µM
SW-620 colon
  GI50: 3.41 µM
  TGI: > 100 µM
BT-549 breast
  GI50: 13.8 µM
  TGI: > 100 µM
RXF 393 renal
  GI50: 2.67 µM
  TGI: 10.7 µM

## COc1cc(/C=C/C(=O)c2ccc(SC)cc2)cc(OC)c1OC
SK-MEL-5 melanoma
  GI50: 12 µM
  TGI: 24.5 µM
SF-539 CNS
  GI50: 11.7 µM
  TGI: 27.2 µM
HT29 colon
  GI50: 4.15 µM
  TGI: 24.4 µM
OVCAR-8 ovarian
  GI50: 2.44 µM
  TGI: 5.85 µM
NCI-H522 lung
  GI50: 8.82 µM
  TGI: 23.8 µM
SN12C renal
  GI50: 3.17 µM
  TGI: 8.98 µM
SW-620 colon
  GI50: 6.89 µM
  TGI: 21.6 µM
BT-549 breast
  GI50: 10.1 µM
  TGI: 24.6 µM
RXF 393 renal
  GI50: 2.62 µM
  TGI: 7.01 µM

## Nc1nc(N)c(N=Nc2ccc([As](=O)(O)O)c(O)c2)c(N)n1
SK-MEL-5 melanoma
  TGI: > 100 µM
SF-539 CNS
  TGI: > 56.8 µM
HT29 colon
  TGI: > 100 µM
OVCAR-8 ovarian
  TGI: > 100 µM
SF-295 CNS
  TGI: > 100 µM
NCI-H522 lung
  TGI: > 31 µM
SN12C renal
  TGI: > 26.8 µM
SW-620 colon
  TGI: > 100 µM
BT-549 breast
  TGI: > 100 µM
RXF 393 renal
  TGI: > 29.8 µM

## C=C(C=O)[C@@H]1CC=C(C=O)CC1
SK-MEL-5 melanoma
  GI50: 3.9 µM
  TGI: > 46.5 µM
SF-539 CNS
  GI50: 9.88 µM
  TGI: 33.5 µM
HT29 colon
  GI50: 3.54 µM
  TGI: > 100 µM
OVCAR-8 ovarian
  GI50: 3.69 µM
  TGI: > 100 µM
SF-295 CNS
  GI50: 12 µM
  TGI: 97.3 µM
NCI-H522 lung
  GI50: 37.8 µM
  TGI: > 100 µM
SN12C renal
  GI50: 4.31 µM
  TGI: 33.9 µM
BT-549 breast
  GI50: 3.26 µM
  TGI: > 30.5 µM
RXF 393 renal
  GI50: 3.72 µM
  TGI: > 100 µM

## Cc1cnc2n(c1=O)Cc1ccccc1CO2
SK-MEL-5 melanoma
  GI50: 15.4 µM
  TGI: 29.5 µM
SF-539 CNS
  GI50: 24 µM
  TGI: 60 µM
HT29 colon
  GI50: 26.3 µM
  TGI: 96.9 µM
OVCAR-8 ovarian
  GI50: 23.4 µM
  TGI: 82.5 µM
SF-295 CNS
  GI50: 33.2 µM
  TGI: > 100 µM
NCI-H522 lung
  GI50: 3.8 µM
  TGI: 18.8 µM
SN12C renal
  GI50: 23.2 µM
  TGI: 71.3 µM
SW-620 colon
  GI50: 17.3 µM
  TGI: 49 µM
BT-549 breast
  GI50: 15.5 µM
  TGI: 32.8 µM
RXF 393 renal
  GI50: 15.2 µM
  TGI: 36.8 µM

## Nc1c2c(c(O)c3c1=C(CO)C=N3)=NCCS2=O (stereo unspecified)
SK-MEL-5 melanoma
  GI50: 1.13 µM
  TGI: 2.36 µM
SF-539 CNS
  GI50: 1.65 µM
  TGI: 3.06 µM
HT29 colon
  GI50: 1.78 µM
  TGI: 4.46 µM
OVCAR-8 ovarian
  GI50: 1.99 µM
  TGI: 4.78 µM
SF-295 CNS
  GI50: 2.12 µM
  TGI: 4.12 µM
NCI-H522 lung
  GI50: 1.37 µM
  TGI: 3.3 µM
SN12C renal
  GI50: 1.66 µM
  TGI: 3.57 µM
SW-620 colon
  GI50: 2.1 µM
  TGI: 4.22 µM
BT-549 breast
  GI50: 1.69 µM
  TGI: 3.1 µM
RXF 393 renal
  GI50: 3.84 µM
  TGI: 17.5 µM

## NCCCCNCCCNC(=O)c1csc(-c2nc(CCN)sc2Cl)n1
SK-MEL-5 melanoma
  TGI: > 100 µM
SF-539 CNS
  TGI: > 100 µM
HT29 colon
  TGI: > 100 µM
OVCAR-8 ovarian
  TGI: > 100 µM
SF-295 CNS
  TGI: > 100 µM
SN12C renal
  TGI: > 100 µM
SW-620 colon
  TGI: > 100 µM
BT-549 breast
  TGI: > 100 µM
RXF 393 renal
  TGI: > 100 µM
